Source: patent EP4733301A1 (priority 2023, dated 2025)
Where “and” joins values, the source holds several entries; their conditions need not be identical. Identical values can stand only once. Non-standard residues stand in square brackets, D forms with d. Residues, ends and D or L forms follow the SMILES beside them. *: point of attachment. Dolaproine = CO[C@@H]([C@@H]1CCCN1)[C@@H](C)C(=O)O; Dil = CC[C@H](C)[C@H](NC)[C@@H](CC(=O)O)OC; X1 = C[C@@H](N*)[C@@H](O)c1ccccc1; NMeV = CN[C@H](C(=O)O)C(C)C

Test system: 4T1-FAP cells
Experiment: CCK-8 cell viability assay (cytotoxicity of MMAE and NAPC-ADC)
Format: cell-based, Mouse
Settings: 72 hour incubation
Description: Cell viability was assessed using CCK-8 assay. Each experiment was performed in triplicate. To detect cytotoxicity of MMAE and NAPC-ADC, 4T1-FAP cells were seeded at 5×10^4 /mL in 96-well plates in 200 µL rmi-1640 medium containing 10% FBS and 1% penicillin/streptomycin, incubated at 37 °C in a 5% CO2 incubator for 24 hours, then incubated with different concentrations of MMAE and NAPC-ADC for 72 hour, and blank medium containing CCK-8 at a final concentration of 0.5 mg/mL was added. Incubated at 37 °C, 5% CO2 for 2 hours, absorbance was measured at 450 nm. The absorbance of treated cells was compared to that of the control group, whose viability was set at 100%.

## CC[C@H](C)[C@@H]([C@@H](CC(=O)N1CCC[C@H]1[C@H](OC)[C@@H](C)C(=O)N[C@H](C)[C@@H](O)c1ccccc1)OC)N(C)C(=O)[C@@H](NC(=O)[C@@H](NC)C(C)C)C(C)C [MMAE] (H-[NMeV]V[Dil][Dolaproine]-X1)
  IC50: < 1.69 nM and 1.69 nM
